target: BTK (Homo sapiens, UniProt Q06187); experiment: biochemical; conditions: read-out: BTK inhibition (%)
Sequence (Q06187 402-655 limits assumed): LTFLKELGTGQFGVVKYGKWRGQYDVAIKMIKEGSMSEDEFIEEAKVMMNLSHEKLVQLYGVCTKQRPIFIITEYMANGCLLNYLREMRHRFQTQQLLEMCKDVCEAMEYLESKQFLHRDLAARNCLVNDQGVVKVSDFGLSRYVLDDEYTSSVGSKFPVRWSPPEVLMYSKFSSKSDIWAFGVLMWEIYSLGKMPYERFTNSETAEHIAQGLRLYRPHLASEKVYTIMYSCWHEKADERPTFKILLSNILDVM

| SMILES | inhibition at 10 µM [%] |
| --- | --- |
| S=C=Nc1cccc(NC(=S)NCCCCNC(=S)Nc2cccc(N=C=S)c2)c1 [PCM-0095477] | 38.9 |
| CCC1(O)C(=O)OCc2c1cc1n(c2=O)Cc2cc3cc(O)ccc3nc2-1 (centres unmarked) [PCM-0094873] | 6.2 |
| CN1CCCCC1Cn1cc(C(=O)c2cc([N+](=O)[O-])ccc2I)c2ccccc21 (centres unmarked) [PCM-0095105] | 22.6 |
| O=c1ccc2ccc3occc3c2o1 [PCM-0214995] | -19.3 |

same assay, conditions: read-out: BTK inhibition (%), 0.75 uM BTK, […] probe 3l, 15 min preincubation

| SMILES | inhibition at 10 µM [%] |
| --- | --- |
| C[C@]12CCC3=C4CCC(=O)C=C4CC[C@H]3[C@@H]1CC[C@@]2(O)CC#N [PCM-0095005] | -11.7 |
| O=C(O)C(O)Cc1ccc(O)c(O)c1 (centres unmarked) [PCM-0089145] | 18.7 |
| C[C@H](CC[C@@H](O[C@@H]1O[C@H](CO[C@@H]2O[C@H](CO)[C@@H](O)[C@H](O)[C@H]2O)[C@@H](O)[C@H](O)[C@H]1O[C@@H]1O[C@H](CO)[C@@H](O)[C@H](O)[C@H]1O)C(C)(C)O)[C@H]1CC[C@@]2(C)[C@@H]3CC=C4[C@@H](CC[C@H](O[C@@H]5O[C@H](CO[C@@H]6O[C@H](CO)[C@@H](O)[C@H](O)[C@H]6O)[C@@H](O)[C@H](O)[C@H]5O)C4(C)C)[C@]3(C)[C@H](O)C[C@]12C [PCM-0214952] | -2.3 |
| Nc1cc(C(Cl)=C(Cl)Cl)c(S(N)(=O)=O)cc1S(N)(=O)=O [PCM-0086106] | -3.9 |
| C[C@@H]1CC[C@H]2[C@@H](C)C(=O)O[C@@H]3O[C@@]4(C)CC[C@@H]1[C@]32OO4 [PCM-0214642] | 8.6 |
| CCCNC(=O)[C@H]1O[C@@H]1C(=O)N[C@H](C(=O)N1CCC[C@H]1C(=O)OC)[C@@H](C)CC [PCM-0215739] | -31.7 |
| CCOc1ccc(Cc2cc([C@@H]3O[C@H](SC)[C@@H](O)[C@H](O)[C@H]3O)ccc2Cl)cc1 [PCM-0215557] | -17.8 |
| Cc1ccc(C(C)C)cc2c(C)ccc1-2 [PCM-0215089] | 10.1 |
| C[C@H](Oc1ccc(S(C)(=O)=O)cc1C(=O)N1CCN(c2ncc(C(F)(F)F)cc2F)CC1)C(F)(F)F [PCM-0215624] | -20.1 |
| CCC(CC)n1ccc2c(C(=O)NCc3c(C)cc(C)[nH]c3=O)cc(C#N)cc21 [PCM-0215402] | 1.5 |
| CN(C)C(=O)c1ccc(S(=O)(=O)c2ccc(NC(=O)[C@@](C)(O)C(F)(F)F)c(Cl)c2)cc1 [PCM-0215295] | 3.1 |
| COCCNc1cc(NC(=O)N2CCCc3cc(CN4CCN(C)CC4=O)c(C=O)nc32)ncc1C#N [PCM-0216117] | -16.2 |
| CN1CCN(CCCNc2ncc(Cl)c(-c3cc4c(C(=O)NC5CC5)cccc4s3)n2)CC1 [PCM-0215458] | -10.8 |
| COc1nc(C)nc(Cl)c1NC1=NCCN1 [PCM-0065456] | 0.8 |
| Cn1cc(-c2ccc3nnc(Sc4ccc5ncccc5c4)n3n2)cn1 [PCM-0094898] | -3.4 |
| O=c1n(CCCN2CCN(c3cccc(Cl)c3)CC2)nc2ccccn12 [PCM-0064865] | -0.9 |
| CC1(C)CC[C@]2(C(=O)O)[C@H](O)C[C@]3(C)C(=CC[C@@H]4[C@@]5(C)C[C@H](O)[C@H](O)[C@@](C)(CO)[C@@H]5CC[C@]43C)[C@@H]2C1 [PCM-0216296] | -10.8 |
| N#Cc1ccc([C@H]2CCc3cncn32)c(F)c1 [PCM-0215764] | 6.2 |
| CCN[C@H]1CN(CCCOC)S(=O)(=O)c2sc(S(N)(=O)=O)cc21 [PCM-0086056] | -11.7 |
| O=C(O[C@@H]1Cc2c(O)cc(O)cc2O[C@H]1c1cc(O)c(O)c(O)c1)c1cc(O)c(O)c(O)c1 [PCM-0216357] | 40.9 |
| OC[C@@H](O)[C@@H](O[C@@H]1O[C@H](CO)[C@H](O)[C@H](O)[C@H]1O)[C@H](O)[C@@H](O)CO [PCM-0090607] | 17.8 |
| Cc1ccc(Nc2c(F)cccc2Cl)c(CC(=O)O)c1 [PCM-0090280] | 6.9 |
| Cc1[nH]c(/C=C2\C(=O)Nc3ccc(S(=O)(=O)Cc4c(Cl)cccc4Cl)cc32)c(C)c1C(=O)N1CCC[C@@H]1CN1CCCC1 [PCM-0095018] | 35.2 |
| COc1cc(C(=O)O)cc(OC)c1OC [PCM-0215032] | -21 |

| SMILES | inhibition at 10 µM [%] |
| --- | --- |
| NC(=O)c1cccc2[nH]c(-c3ccc([C@@H]4CCCN4)cc3F)nc12 [PCM-0214633] | 17.1 |
| COc1cc2ncnc(Oc3ccc(CC(=O)Nc4cnn(C(C)C)c4)cc3)c2cc1OC [PCM-0215465] | -11.7 |
| Cc1cccc(Oc2cnc(=O)[nH]c2)c1 [PCM-0215674] | -17 |
| Cc1c(C(=O)Nc2ccc(N3C[C@@H](C)O[C@@H](C)C3)nc2)cccc1-c1ccc(OC(F)(F)F)cc1 [PCM-0095316] | 6.2 |
| O=c1[nH]cc(F)c(=O)[nH]1 [PCM-0065247] | -0.7 |
| N#CC(C#N)=Cc1ccc(O)c(O)c1 [PCM-0064867] | 54.5 |
| C=C1[C@H]2CC[C@@H]3[C@H]2C(C)(C)CCC[C@]13C [PCM-0216219] | 4.6 |
| NC(=O)c1ncn([C@@H]2O[C@H](CO)[C@@H](O)[C@H]2O)c1N [PCM-0095118] | 4.8 |
| CNC(=O)c1cc(Oc2ccc3nc(N[C@@H]4CCCC[C@H]4O)sc3c2)ccn1 [PCM-0215436] | -9 |
| CN1CCN(c2ccc(C(=O)Nc3n[nH]c4ccc(Cc5cc(F)cc(F)c5)cc34)c(NC3CCOCC3)c2)CC1 [PCM-0215551] | 103 |
| CCN(CC)c1ccc2c(-c3ccccc3C(=O)O)c3ccc(=[N+](CC)CC)cc-3oc2c1 [PCM-0216592] | 85.7 |
| COc1cccc2cc(-c3nc(C4CCC(C(=O)O)CC4)n4ncnc(N)c34)[nH]c12 (centres unmarked) [PCM-0095482] | 28.3 |
| Nc1[nH]c(=O)nc2c1ncn2[C@@H]1O[C@H](CO)[C@@H](O)[C@H]1O [PCM-0216517] | -11.6 |
| NC(=O)c1ccc(N(C(N)=O)c2c(F)cccc2F)nc1-c1ccc(F)cc1F [PCM-0095567] | -32.4 |
| COC(=O)/C=C/C(=O)OC [PCM-0090553] | 1.4 |
| CC1CC(=O)c2c(ccc3c2C(=O)c2cccc(O)c2C3=O)C1 (centres unmarked) [PCM-0215599] | -3.1 |
| CN[C@H]1CN(c2ccc3c(=O)c(C(=O)O)cn(-c4nccs4)c3n2)C[C@@H]1OC [PCM-0215713] | -17 |
| CCCCCCCCCCCCCCCC(=O)OCC [PCM-0216630] | -12.4 |
| CCOC(=O)c1cccc(N)c1 [PCM-0214922] | -2.3 |
| Nc1[nH]c(=O)ncc1F [PCM-0086523] | -6.2 |
| COc1ccc(CCc2cc(OC)c(OC)c(OC)c2)cc1O [PCM-0216418] | -24.7 |
| O=c1ccc2ccc(O)c(O)c2o1 [PCM-0065041] | 15.9 |
| CS(=O)(=O)n1cc2c(n1)CN([C@H]1CO[C@H](c3cc(F)ccc3F)[C@@H](N)C1)C2 [PCM-0215833] | 4.6 |
| C[C@@H](Nc1nc(N[C@H](C)C(F)(F)F)nc(-c2cccc(Cl)n2)n1)C(F)(F)F [PCM-0215864] | -3.9 |

| SMILES | inhibition at 10 µM [%] |
| --- | --- |
| COc1cc(-c2cc(-c3cccc(O)c3)cnc2N)cc(OC)c1OC [PCM-0095813] | 29.3 |
| CCOc1cc(C(=O)N2CCC(N3CCN(C)CC3)CC2)ccc1Nc1ncc2c(n1)N(C1CCCC1)c1ccccc1C(=O)N2C [PCM-0213331] | 0 |
| CC(C)(C#N)c1cc(Cn2cncn2)cc(C(C)(C)C#N)c1 [PCM-0086178] | -11 |
| OC[C@H]1O[C@@](CO)(OC[C@@]2(OC[C@@]3(O[C@H]4O[C@H](CO)[C@@H](O)[C@H](O)[C@H]4O)O[C@H](CO)[C@@H](O)[C@@H]3O)O[C@H](CO)[C@@H](O)[C@@H]2O)[C@@H](O)[C@@H]1O [PCM-0216359] | 7.7 |
| Cc1cnc(C(=O)O)c[n+]1[O-] [PCM-0086103] | 3.1 |
| CC(C)(NS(=O)(=O)c1ccc2c(Cl)cnc(N=C(N)N)c2c1)C(=O)O [PCM-0215778] | -11.6 |
| Cc1onc(-c2c(F)cccc2Cl)c1C(=O)N[C@@H]1C(=O)N2[C@@H]1SC(C)(C)[C@@H]2C(=O)O [PCM-0216122] | -1.6 |
| O=C(Nc1nc2cccc(-c3ccc(CN4CCS(=O)(=O)CC4)cc3)n2n1)C1CC1 [PCM-0215361] | 31.7 |
| Cc1cccn2c(=O)c(-c3nnn[nH]3)cnc12 [PCM-0086031] | -17 |
| CN1Cc2c(ccc3c2OCO3)[C@@]2(C)[C@@H](O)Cc3cc4c(cc3[C@@H]12)OCO4 [PCM-0216379] | -2.3 |
| CC(C)Cn1cnc2c(N)nc3ccccc3c21 [PCM-0086321] | -2.6 |
| C[C@@H]1CC[C@]2(C(=O)O[C@@H]3O[C@H](CO)[C@@H](O)[C@H](O)[C@H]3O)CC[C@]3(C)C(=CC[C@@H]4[C@@]5(C)CC[C@H](O[C@@H]6OC[C@H](O)[C@H](O)[C@H]6O)C(C)(C)[C@@H]5CC[C@]43C)[C@@H]2[C@]1(C)O [PCM-0216435] | 7.7 |
| Nc1ccn([C@@H]2O[C@H](CO)[C@@H](O)[C@H]2O)c(=O)n1 [PCM-0095215] | -15.6 |
| C[C@H](CCC(=O)NCC(=O)O)[C@H]1CC[C@H]2[C@@H]3[C@H](O)C[C@@H]4C[C@H](O)CC[C@]4(C)[C@H]3C[C@H](O)[C@]12C [PCM-0215147] | -10.1 |
| CC1=C(C(=O)OC2CCCCC2)C(c2ccc([N+](=O)[O-])cc2)C2=C(CC(C)(C)CC2=O)N1 (centres unmarked) [PCM-0095815] | 46.3 |
| CC[C@@H]1CN2CC[C@@]3(C(=O)Nc4ccccc43)[C@@H]2C[C@@H]1/C(=C\OC)C(=O)OC [PCM-0216594] | -15.4 |
| O=C(O)CCn1c2c(c3ccccc31)C[C@H](NS(=O)(=O)c1ccc(F)cc1)CC2 [PCM-0101878] | -15.4 |
| C=CCc1ccc(OC(C)=O)c(OC)c1 [PCM-0216623] | 8.5 |
| O=c1[nH]cnc2[nH]ncc12 [PCM-0064482] | 18.7 |
| CCC(C)n1ncn(-c2ccc(N3CCN(c4ccc(OC[C@H]5CO[C@](Cn6cncn6)(c6ccc(Cl)cc6Cl)O5)cc4)CC3)cc2)c1=O (some centres unmarked) [PCM-0090573] | -13.6 |
| NC[C@H](CC(=O)O)c1ccc(Cl)cc1 [PCM-0095558] | -12.8 |
| CCn1cc(-c2ccnc3[nH]c(-c4cccc(CN(C)C)c4)cc23)c(-c2ccc(NC(=O)N(C)C)cc2)n1 [PCM-0095464] | 48.3 |
